# In patent US20230098403A1, “MAGNETIC RESONANCE IMAGING CONTRAST AGENT, PREPARATION METHOD AND USE THEREOF” (GUANGZHOU PINGLAN MEDICAL TECHNOLOGY CO., LTD., priority 2020, published 2023):
# Test: Excretion kinetics test, Mn^2+ in urine and bile by ICP-MS
# Format: in vivo, SD rats
# Conditions: tail vein 0.1 mmol/kg; for Bile: Mn^2+ excretion amount / Bile: cumulative Mn^2+ excretion amount / Bile: cumulative Mn^2+ excretion rate / Urine: Mn^2+ excretion amount / Urine: cumulative Mn^2+ excretion amount / Urine: cumulative Mn^2+ excretion rate: SD rats, n = 7
# Experimental: Clean grade Sprague Dawley (SD) rats, 5 males and 3 females, weighing 250±50 g, were purchased from the Animal Experimental Center of North Sichuan Medical College, fasted for 12-16 h before the experiment and anesthetized by intraperitoneal injection of 3% sodium pentobarbital (40 mg/kg).
# The rat tail was soaked in hot water at about 40° C. for about 1 minute, and it was wiped and sterilized by a cotton ball dipped in alcohol followed by fixing and stretching the tip of the tail with left thumb and middle finger, and flatting with the index finger. The tail vein was located at both sides of the tail and was light cyan in color. Air in an indwelling needle was removed with normal saline, and the indwelling needle was inserted into the vein at an angle of 15° to the vein. When blood was returned, the indwelling needle was pushed forward after insertion. Then the indwelling needle was fixed on the tail of the rat, and normal saline was injected at a rate of about 2 mL/h.
# After sterilization, a longitudinal incision was made in the middle of the abdomen of rats below the xiphoid, by incising the skin, subcutaneous tissue, linea alba, and peritoneum layer by layer into the abdomen. A forcep was used for opening the left and right lobes of the liver, below which the duodenum and omentum were exposed. The transverse part of the duodenum was stretched with the forcep in the middle, and the pale yellow biliary tract was covered by the omentum and extended from the subhepatic portion to the duodenum. The biliary tract was bluntly dissected out, picked out with a glass pick, and a venous indwelling needle was inserted near the duodenum, fixed with a hemostatic clip, and bile was collected as a pre-dose sample.
# A longitudinal incision was made at 0.5 cm above the urethral orifice of rats, and the skin was incised and the muscles were bluntly separated. After the bladder was filled to a certain extent, the bladder was lifted by the left hand with a tweezer, and the venous indwelling needle was held by the right hand and was obliquely inserted into the bladder toward the top, along the opening of ureter on the dorsal lateral side of the bladder, and the needle was removed to collect urine as a pre-dose sample.
# After collecting pre-dose bile and urine samples, the drug was rapidly administered in the tail vein at a dose of 0.1 mmol/kg.
# The hourly biliary excretion amount and hourly urinary excretion amount were collected after drug administration; the samples were weighed and frozen at −20° C.
# […] of the sample (bile and urine) was diluted to 6 to 10 ml with 1% HNO3 to make the concentrations of Mn^2+ in the range of 1 to 1000 ppb. The concentrations of Mn^2+ in the samples solution were numbered and detected. The Mn^2+ concentrations in the sample solutions were calculated according to the response intensity and standard curve.
# Origin 9.0 was used for calculating data and drawing. The excretion amount during the period was obtained by multiplying the dilution ratio, measurement concentration and urine (bile) volume. The excretion amount during each period was compared with the dosage of administration to obtain the percentage of cumulative drug excretion amount during the corresponding time period.
smiles,measurement,setting,value
O=C([O-])CN(CP(=O)([O-])O)C1CCCCC1N(CC(=O)[O-])CP(=O)([O-])O.[Mn+2].[Na+].[Na+] (stereo not shown) [KBR0826],Bile: Mn^2+ excretion amount,sampling period 0-1 h,0.0386 mg
same,Bile: cumulative Mn^2+ excretion amount,sampling period 0-1 h,0.0385 mg
same,Bile: cumulative Mn^2+ excretion rate,sampling period 0-1 h,2.81%
same,Urine: Mn^2+ excretion amount,sampling period 0-1 h,0.06995 mg
same,Urine: cumulative Mn^2+ excretion amount,sampling period 0-1 h,0.06995 mg
same,Urine: cumulative Mn^2+ excretion rate,sampling period 0-1 h,5.28%
same,Bile: Mn^2+ excretion amount,sampling period 1-2 h,0.0865 mg
same,Bile: cumulative Mn^2+ excretion amount,sampling period 1-2 h,0.1251 mg
same,Bile: cumulative Mn^2+ excretion rate,sampling period 1-2 h,9.31%
same,Urine: Mn^2+ excretion amount,sampling period 1-2 h,0.1582 mg
same,Urine: cumulative Mn^2+ excretion amount,sampling period 1-2 h,0.2281 mg
same,Urine: cumulative Mn^2+ excretion rate,sampling period 1-2 h,18.27%
same,Bile: Mn^2+ excretion amount,sampling period 2-3 h,0.0518 mg
same,Bile: cumulative Mn^2+ excretion amount,sampling period 2-3 h,0.1768 mg
same,Bile: cumulative Mn^2+ excretion rate,sampling period 2-3 h,13.17%
same,Urine: Mn^2+ excretion amount,sampling period 2-3 h,0.1094 mg
same,Urine: cumulative Mn^2+ excretion amount,sampling period 2-3 h,0.3375 mg
same,Urine: cumulative Mn^2+ excretion rate,sampling period 2-3 h,26.67%
same,Bile: Mn^2+ excretion amount,sampling period 3-4 h,0.0333 mg
same,Bile: cumulative Mn^2+ excretion amount,sampling period 3-4 h,0.2101 mg
same,Bile: cumulative Mn^2+ excretion rate,sampling period 3-4 h,15.69%
same,Urine: Mn^2+ excretion amount,sampling period 3-4 h,0.02084 mg
same,Urine: cumulative Mn^2+ excretion amount,sampling period 3-4 h,0.3399 mg
same,Urine: cumulative Mn^2+ excretion rate,sampling period 3-4 h,26.71%
same,Bile: Mn^2+ excretion amount,sampling period 4-5 h,0.043 mg
same,Bile: cumulative Mn^2+ excretion amount,sampling period 4-5 h,0.2627 mg
same,Bile: cumulative Mn^2+ excretion rate,sampling period 4-5 h,19.66%
same,Urine: Mn^2+ excretion amount,sampling period 4-5 h,0.01213 mg
same,Urine: cumulative Mn^2+ excretion amount,sampling period 4-5 h,0.3521 mg
same,Urine: cumulative Mn^2+ excretion rate,sampling period 4-5 h,27.59%
same,Bile: Mn^2+ excretion amount,sampling period 5-6 h,0.0318 mg
same,Bile: cumulative Mn^2+ excretion amount,sampling period 5-6 h,0.2945 mg
same,Bile: cumulative Mn^2+ excretion rate,sampling period 5-6 h,22.07%
same,Urine: Mn^2+ excretion amount,sampling period 5-6 h,0.00387 mg
same,Urine: cumulative Mn^2+ excretion amount,sampling period 5-6 h,0.3559 mg
same,Urine: cumulative Mn^2+ excretion rate,sampling period 5-6 h,27.88%
same,Bile: Mn^2+ excretion amount,sampling period 6-7 h,0.0265 mg
same,Bile: cumulative Mn^2+ excretion amount,sampling period 6-7 h,0.3209 mg
same,Bile: cumulative Mn^2+ excretion rate,sampling period 6-7 h,24.05%
same,Urine: Mn^2+ excretion amount,sampling period 6-7 h,0.00284 mg
same,Urine: cumulative Mn^2+ excretion amount,sampling period 6-7 h,0.3588 mg
same,Urine: cumulative Mn^2+ excretion rate,sampling period 6-7 h,28.09%
same,Bile: Mn^2+ excretion amount,sampling period 7-8 h,0.0219 mg
same,Bile: cumulative Mn^2+ excretion amount,sampling period 7-8 h,0.3429 mg
same,Bile: cumulative Mn^2+ excretion rate,sampling period 7-8 h,25.67%
same,Urine: Mn^2+ excretion amount,sampling period 7-8 h,0.0018 mg
same,Urine: cumulative Mn^2+ excretion amount,sampling period 7-8 h,0.3606 mg
same,Urine: cumulative Mn^2+ excretion rate,sampling period 7-8 h,28.22%
same,Bile: Mn^2+ excretion amount,sampling period 8-9 h,0.02 mg
same,Bile: cumulative Mn^2+ excretion amount,sampling period 8-9 h,0.3684 mg
same,Bile: cumulative Mn^2+ excretion rate,sampling period 8-9 h,27.03%
same,Urine: Mn^2+ excretion amount,sampling period 8-9 h,0.00083 mg
same,Urine: cumulative Mn^2+ excretion amount,sampling period 8-9 h,0.3614 mg
same,Urine: cumulative Mn^2+ excretion rate,sampling period 8-9 h,28.28%
same,Bile: Mn^2+ excretion amount,sampling period 9-10 h,0.0179 mg
same,Bile: cumulative Mn^2+ excretion amount,sampling period 9-10 h,0.3859 mg
same,Bile: cumulative Mn^2+ excretion rate,sampling period 9-10 h,29.97%
same,Urine: Mn^2+ excretion amount,sampling period 9-10 h,0.00061 mg
same,Urine: cumulative Mn^2+ excretion amount,sampling period 9-10 h,0.362 mg
same,Urine: cumulative Mn^2+ excretion rate,sampling period 9-10 h,28.33%
same,excretion route,rats,mainly excreted through liver and kidney
same,time course of excretion in urine and bile,rats,mainly in urine at the early stage and then in bile
same,excreted in liver and kidney,"rats, within 600 min",about 60%
same,share of liver and kidney in excretion,"rats, within 600 min",half and half
